Data from patent publication US9282744B2, “Synergistic fungicide composition” (JIANGSU HUIFENG AGROCHEMICAL CO., LTD., priority 2012, dated 2016).
Values after ≈ are worked out from the molar mass of the structure shown.

How the values were obtained:
[1] = test system: cucumber downy mildew pathogenic fungi; assay: Test of toxicity of compound benziothiazolinone and dithianon on cucumber downy mildew pathogenic fungi; format: in vivo; conditions: for ATI (actual toxicity index): benziothiazolinone as standard = 100; for EC50: cucumber downy mildew, Table 1
Experimental: 1. Test of Toxicity of Compound Benziothiazolinone and Dithianon on Cucumber Downy Mildew Pathogenic Fungi
Subjects for Test: Cucumber Downy Mildew Pathogenic Fungi
(§1) The incidence of whole cucumber leaves was investigated according to test grading level, and the disease index and the prevention and treatment effect were calculated.
(§2) The prevention and treatment effect was converted into probability values (y), the heights of the chemicals (μg/ml) were converted into logarithm values (x), the toxicity equation and the median inhibition concentration EC50 were calculated by the least square method, and the toxicity index level co-toxicity coefficient (CTC) of the chemicals was calculated according to the Sun Yunpei's method. Actual toxicity index(ATI)=(EC50 of the standard reagent/EC50 of the test reagent)×100 Theoretical toxicity index(TTI)=the toxicity index of chemicalA×the percentage of A in the mixture+the toxicity index of chemical B×the percentage of B in the mixture Co-toxicity coefficient(CTC)=[Actual toxicity index(ATI) of the mixture/Theoretical toxicity index(TTI) of the mixture][…]

[2] = test system: cucumber downy mildew pathogenic fungi; assay: Test of toxicity of compound benziothiazolinone and dimethomorph on cucumber downy mildew; format: in vivo; conditions: for ATI (actual toxicity index): benziothiazolinone as standard = 100; for EC50: cucumber downy mildew, Table 2
Experimental: as §1, §2
2. Test of Toxicity of Compound Benziothiazolinone and Dimethomorph on Cucumber Downy Mildew

[3] = test system: cucumber downy mildew pathogenic fungi; assay: Test of toxicity of compound benziothiazolinone and iprodione on cucumber downy mildew; format: in vivo; conditions: for ATI (actual toxicity index): benziothiazolinone as standard = 100; for EC50: cucumber downy mildew, Table 3
Experimental: as §1, §2
3. Test of Toxicity of Compound Benziothiazolinone and Iprodione on Cucumber Downy Mildew

[4] = test system: cucumber downy mildew pathogenic fungi; assay: Test of toxicity of compound benziothiazolinone and epoxiconazol on cucumber downy mildew; format: in vivo; conditions: for ATI (actual toxicity index): benziothiazolinone as standard = 100; for EC50: cucumber downy mildew, Table 4
Experimental: as §1, §2
4. Test of Toxicity of Compound Benziothiazolinone and Epoxiconazol on Cucumber Downy Mildew

oomycetes fungi = conditions: formation stages of sporangiophores and oospores of oomycetes; cited from earlier work
[5] = Cucumis sativus, read-out: EC50

| SMILES | ATI (actual toxicity index) [1] | ATI (actual toxicity index) [2] | ATI (actual toxicity index) [3] | ATI (actual toxicity index) [4] | EC50 [4] | other results |
| --- | --- | --- | --- | --- | --- | --- |
| O=c1[nH]sc2ccccc12 [Benziothiazolinone] | 100.0 | 100.0 | 100.00 | 100.00 | 3.81 µg/mL (≈ 25.2 µM) | EC50 [1]: 3.25 µg/mL (≈ 21.5 µM); EC50 [2]: 4.08 µg/mL (≈ 27 µM); EC50 [3]: 4.21 µg/mL (≈ 27.8 µM) |
| COc1ccc(C(=CC(=O)N2CCOCC2)c2ccc(Cl)cc2)cc1OC [Dimethomorph] | – | 63.9 | – | – | – | EC50 [2, 5]: 6.36 µg/mL (≈ 16.4 µM); concentration at which inhibited (oomycetes fungi): 0.25 µg/mL |
| N#Cc1sc2c(=O)c3ccccc3c(=O)c=2sc1C#N [Dithianon] | 60.1 | – | – | – | – | EC50 [1, 5]: 5.41 µg/mL (≈ 18.3 µM) |
| Fc1ccc([C@]2(Cn3cncn3)O[C@H]2c2ccccc2Cl)cc1 [Epoxiconazol] | – | – | – | 89.65 | 4.25 µg/mL (≈ 12.9 µM) | – |
| CC(C)NC(=O)N1CC(=O)N(c2cc(Cl)cc(Cl)c2)C1=O [Iprodione] | – | – | 72.34 | – | – | EC50 [3, 5]: 5.82 µg/mL (≈ 17.6 µM) |
